# “Also recorded” adds a separate entry of the source. Where two headings read alike, the source gives them in different places.
# Key:
# HSV-1 = experiment: HSV-1-GFP infection of CV-1 cells, flow cytometry; assay type: cell-based; conditions: 16 hours
# Procedure: CV-1 cells were infected with HSV-1-GFP for 16 hours. Post-infection, CV-1 cells were detected by flow cytometry (FIG. 33). […] Acyclovir (the standard of care for severe HSV-1 infections) was also added as a control at the same molar ratio.
# [1] = tested on: complement activation in factor B-depleted human sera; assay type: biochemical; conditions: 0.77 mM peptide in factor B-depleted serum; standardized to water or DMSO; Table 7
# Procedure: (§1) Peptides were diluted to 0.77 mM in factor B-depleted human sera (Complement Technologies, Inc.) and incubated for 1 hour at 37° C. These peptides were then diluted with GVBS^++ to equal 2.5% serum, of which 0.25 ml was combined with 0.4 ml of GVBS^++ and 0.1 ml of sensitized sheep red blood cells (RBCs) and again incubated for 1 hour at 37° C. The procedure was stopped by the addition of 4.0 ml of GVBS^−− centrifuged for 5 minutes at 1,620×g, and the absorbance of the supernatants was read at 412 nm in a spectrophotometer. The percent lysis of each sample was standardized to that of the serum only control.
# (§2) The final concentration of peptide in factor B-depleted serum was 0.77 mM. Each peptide was evaluated in triplicate and the mean values are reported. […] In the hemolytic assay, soluble peptides are standardized to water and insoluble peptides standardized to DMSO.
# (§3) Polar Assortant peptides were serially diluted in undiluted factor B-depleted human sera (Complement Technologies, Inc.) and incubated for 1 hour at 37° C. Water, GVBS^++ and DMSO were included as controls. These peptides were then diluted with GVBS^++ to equal 2.5% serum, of which 0.25 ml was combined with 0.4 ml of GVBS^++ and 0.1 ml of sensitized sheep red blood cells (RBCs) and again incubated for 1 hour at 37° C. The procedure was stopped by the addition of 4.0 ml of GVBS^−−, centrifuged for 5 minutes at 1,620×g, and the absorbance of the supernatants was read at 412 nm in a spectrophotometer. The percent lysis of each sample was standardized to that of the serum only control.
# (§4) The final concentration of peptide in factor B-depleted serum was 0.77 mM. […] In the hemolytic assay, soluble peptides were standardized to water and insoluble peptides standardized to DMSO.
# (§5) The final concentration of peptide in factor B-depleted serum was 0.77 mM. […] In the hemolytic assay, soluble peptides are standardized to water and insoluble peptides standardized to DMSO.
# [2] = assay type: biochemical, human; conditions: 0.77 mM peptide in factor B-depleted serum; standardized to water or DMSO; Table 6
# Procedure: as §1, §2, §3, §4, §5
# Solubility in water = assay type: physicochemical; conditions: Table 7, PEGylated and Sar/Ala substitution peptides
# [3] = Complement-mediated hemolysis of type B erythrocytes by type O donor plasma (ATR in vitro model); assay type: biochemical, human; conditions: highly hemolytic type-O plasma, dose-response, maximum
# Procedure: Plasma from both donors were diluted with GVBS++ (veronal buffered saline with 0.1% gelatin, 0.15 mM CaCl2 and 1 mM MgCl2) and incubated with purified erythrocytes from a B+ donor at 37° C. for 1 hour. Free hemoglobin was measured by spectrophotometer at 412 nm.
# [4] = 40 mg [160 mg/kg] i.v.
# Description: Eight animals were sacrificed at day 3, and ten were sacrificed at day 14.
# [5] = Single-dose toxicology, maximum deliverable dose; assay type: in vivo, rat; conditions: 60 mg [240 mg/kg] i.v.
# [6] = tested on: hypoxic ischemic brain injury; assay type: in vivo, Wistar rat; conditions: CVF injection before ligation/hypoxia
# [7] = tested on: complement-mediated hemolysis of transfused huRBCs; experiment: Rat AIHTR model, xenotransfusion of human RBCs; assay type: in vivo, Wistar rat; conditions: prophylaxis; 40 mg PA-dPEG24 vs NS at 5 and 20 minutes (P≤0.05); CVF 130 μg i.p. 24 hours before
# Procedure: This process generates 1 ml huRBCs at 80% hematocrit, which was given as a 15% transfusion to the rats.
# For both experiments, animals allotted to the saline control group received NS prior to huRBC transfusion whereas the CVF group received 130 μg CVF (Complement Technologies, Inc.) intra-peritoneum (LP.) 24 hours prior to the huRBC transfusion.
# Using weight-based doses of ketamine and acepromazine, animals were sedated throughout the course of the experiment with periodic monitoring of vital signs. Blood samples were collected into EDTA microtainer tubes (BD) from the animals prior to the huRBC transfusion and then at 30 seconds, 5 minutes, 20 minutes, 60 minutes and 120 minutes after the huRBC transfusion. […]
# Flow cytometry was performed on the collected RBCs using a FACS Calibur flow cytometer (Becton Dickinson, Franklin Lakes, NJ) with DXP 8 Color 488/637/407 Upgrade (Cytek Development, Fremont, CA). […] Data was analyzed using FlowJo X version 10.0.7r2 (FlowJo LLC, Ashland, OR). […]
# For bilirubin measurements, the pre-bleed and 120 minute plasma samples from the prophylaxis (n=8) and NS (n=7) groups were analyzed for the amount of bilirubin present using the Bilirubin Assay Kit (Sigma-Aldrich, St. Louis, MO) in half the manufacturer's recommend volume. […]
compound,measurement,setting,value
Nc1nc2c(ncn2COCCO)c(=O)[nH]1 [Acyclovir],Inhibition of HSV-1 replication,HSV-1,never able to completely inhibit replication
CC[C@H](C)[C@H](N)C(=O)N[C@@H](C)C(=O)N[C@@H](CC(C)C)C(=O)N[C@H](C(=O)N[C@@H](CC(C)C)C(=O)N[C@@H](CCC(=O)O)C(=O)N1CCC[C@H]1C(=O)N[C@H](C(=O)N[C@@H](CS)C(=O)N[C@@H](CS)C(=O)N[C@@H](CCC(N)=O)C(=O)N[C@@H](CCC(=O)O)C(=O)N[C@@H](CCCNC(=N)N)C(=O)N[C@@H](C)C(=O)N[C@@H](C)C(=O)NCCOCCOCCOCCOCCOCCOCCOCCOCCOCCOCCOCCOCCOCCOCCOCCOCCOCCOCCOCCOCCOCCOCCOCCOCCC(=O)O)[C@@H](C)CC)[C@@H](C)CC [PA-dPEG24],Hemolysis (%),[1],2.99%
same,hemolysis,[2],2.99%
same,Solubility in water,Solubility in water,Yes
same,percent inhibition of hemolysis,[3],> 95%
same,ALT,[4]; 48 Hr (n = 8),62.8 U/L
same,AST,[4]; 48 Hr (n = 8),108 U/L
same,AlkPhos,[4]; 48 Hr (n = 8),104 U/L
same,BUN,[4]; 48 Hr (n = 8),17.8 mg/dL
same,Bilirubin,[4]; 48 Hr (n = 8),0.1 mg/dL
same,CPK,[4]; 48 Hr (n = 8),538 U/L
same,Creatinine,[4]; 48 Hr (n = 8),0.3 mg/dL
same,GGT,[4]; 48 Hr (n = 8),1.0 U/L
same,Lipase,[4]; 48 Hr (n = 8),11.8 U/L
same,Platelets,[4]; 48 Hr (n = 8),987 10^3/μL
same,RBC,[4]; 48 Hr (n = 8),5.8 10^6/μL
same,ALT,[4]; Day 14 (n = 10),77.4 U/L
same,AST,[4]; Day 14 (n = 10),111 U/L
same,AlkPhos,[4]; Day 14 (n = 10),115 U/L
same,BUN,[4]; Day 14 (n = 10),13.2 mg/dL
same,Bilirubin,[4]; Day 14 (n = 10),0.1 mg/dL
same,CPK,[4]; Day 14 (n = 10),592 U/L
same,Creatinine,[4]; Day 14 (n = 10),0.3 mg/dL
same,GGT,[4]; Day 14 (n = 10),1.1 U/L
same,Lipase,[4]; Day 14 (n = 10),6.4 U/L
same,Platelets,[4]; Day 14 (n = 10),825 10^3/μL
same,RBC,[4]; Day 14 (n = 10),6.6 10^6/μL
same,Organ histology,[4]; day 3 and day 14,no histological evidence for toxicity
same,"Blood chemistry assay results (CBC, superchem, coagulation)",[4]; pretreatment vs day 3 or day 14,no differences
same,ALT,[5]; 48 Hr (n = 6),44.0 U/L
same,AST,[5]; 48 Hr (n = 6),69.0 U/L
same,AlkPhos,[5]; 48 Hr (n = 6),194 U/L
same,BUN,[5]; 48 Hr (n = 6),15.8 mg/dL
same,Bilirubin,[5]; 48 Hr (n = 6),0.1 mg/dL
same,CPK,[5]; 48 Hr (n = 6),142 U/L
same,Creatinine,[5]; 48 Hr (n = 6),0.3 mg/dL
same,GGT,[5]; 48 Hr (n = 6),1 U/L
same,Lipase,[5]; 48 Hr (n = 6),10.3 U/L
same,Platelets,[5]; 48 Hr (n = 6),1045 10^3/μL
same,RBC,[5]; 48 Hr (n = 6),5.3 10^6/μL
same,ALT,[5]; Day 7 (n = 6),76.3 U/L
same,AST,[5]; Day 7 (n = 6),84.3 U/L
same,AlkPhos,[5]; Day 7 (n = 6),147 U/L
same,BUN,[5]; Day 7 (n = 6),13.5 mg/dL
same,Bilirubin,[5]; Day 7 (n = 6),0.1 mg/dL
same,CPK,[5]; Day 7 (n = 6),316 U/L
same,Creatinine,[5]; Day 7 (n = 6),0.4 mg/dL
same,GGT,[5]; Day 7 (n = 6),1 U/L
same,Lipase,[5]; Day 7 (n = 6),8.5 U/L
same,Platelets,[5]; Day 7 (n = 6),623 10^3/μL
same,RBC,[5]; Day 7 (n = 6),5.8 10^6/μL
same,ALT,[5]; Day 14 (n = 6),55.8 U/L
same,AST,[5]; Day 14 (n = 6),104 U/L
same,AlkPhos,[5]; Day 14 (n = 6),154 U/L
same,BUN,[5]; Day 14 (n = 6),14.7 mg/dL
same,Bilirubin,[5]; Day 14 (n = 6),0.1 mg/dL
same,CPK,[5]; Day 14 (n = 6),580 U/L
same,Creatinine,[5]; Day 14 (n = 6),0.4 mg/dL
same,GGT,[5]; Day 14 (n = 6),1 U/L
same,Lipase,[5]; Day 14 (n = 6),9.7 U/L
same,Blood work (CBC and complete blood chemistry) toxicities,"[5]; first 24 hours, 48 hours, day 7 or day 14",No toxicities
cobra venom factor [CVF],Systemic complement activity and brain injury,[6],almost completely eliminated; also recorded: almost completely attenuated brain injury
same,Free hemoglobin in plasma,[7],low levels of free hemoglobin
